In patent US10975083B2, “Blood-brain barrier-penetrant dopamine-β-hydroxylase inhibitors” (BIAL—PORTELA & Cᵃ, S.A., priority 2016, dated 2021):
Where two headings read alike, the source gives them in different places.

Molecular target: T1, DβH (Homo sapiens, UniProt P09172)
T1 construct: reaction mixture (total volume 500 μl) contained: cellular homogenate (75 μg total protein); host or cells: SK-N-SH cell homogenate
T1 sequence (P09172 1-617): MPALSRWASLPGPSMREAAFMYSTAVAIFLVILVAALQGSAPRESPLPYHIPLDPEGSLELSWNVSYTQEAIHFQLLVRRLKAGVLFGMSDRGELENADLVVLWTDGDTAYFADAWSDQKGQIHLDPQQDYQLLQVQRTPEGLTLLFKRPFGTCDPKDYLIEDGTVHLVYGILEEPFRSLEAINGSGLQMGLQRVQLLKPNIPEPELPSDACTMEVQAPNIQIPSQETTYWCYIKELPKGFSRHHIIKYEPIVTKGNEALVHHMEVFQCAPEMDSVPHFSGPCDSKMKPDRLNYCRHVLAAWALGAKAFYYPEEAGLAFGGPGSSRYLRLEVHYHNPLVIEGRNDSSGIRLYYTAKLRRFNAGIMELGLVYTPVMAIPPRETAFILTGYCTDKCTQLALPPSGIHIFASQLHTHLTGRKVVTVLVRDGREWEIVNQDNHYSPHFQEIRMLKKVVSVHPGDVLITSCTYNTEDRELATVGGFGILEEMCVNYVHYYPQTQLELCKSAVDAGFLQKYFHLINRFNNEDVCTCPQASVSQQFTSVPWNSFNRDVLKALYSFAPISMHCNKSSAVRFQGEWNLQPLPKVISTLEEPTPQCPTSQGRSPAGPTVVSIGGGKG
Assay: DβH inhibition cell assay (SK-N-SH cellular homogenates, tyramine to octopamine)
Format: biochemical
Conditions: for remaining activity at 0.1 µM: inhibitor 0.1 μM, read-out: DβH activity in % of Ctrl (0.1 μM); for remaining activity at 1 µM: read-out: DβH activity in % of Ctrl (1 μM)
Method: The ability of a compound to inhibit DβH activity may be assessed using the following cell assay. […] . […] Fetal bovine serum was removed from cells for 4 h prior to collection.
For the preparation of cellular homogenates, media was removed and cell monolayers were washed with 50 mM Tris-HCl pH 7.4. Cells were subsequently scrapped off the flasks and were resuspended in 50 mM Tris pH 7.4. Cell suspensions were homogenized with SilentCrusher M (Heidolph) for a short stroke and resultant homogenates were aliquoted and stored frozen at −80° C.
Total protein was quantified in cellular homogenates with BioRad Protein Assay (BioRad) using a standard curve of BSA (50-250 μg/mL).
DβH activity was measured by a modification of the method of Nagatsu and Udenfriend (Nagatsu, T. and S. Udenfriend: “Photometric assay of dopamine-hydroxylase activity in human blood.” Clin. Chem. 18(9): 980-3, 1972) which is based on the enzymatic hydroxylation of tyramine into octopamine. The octopamine formed is subsequently oxidized to p-hydroxybenzaldehyde and measured by spectrophotometry. In brief, reaction mixture (total volume 500 μl) contained: cellular homogenate (75 μg total protein) sodium acetate pH 5.0 (200 mM), NEM (30 mM), CuSO4 (5 μM), catalase aqueous solution (0.5 mg/mL), pargyline-HCl (1 mM), sodium fumarate (10 mM), ascorbic acid (10 mM), inhibitor or vehicle and tyramine (25 mM). After a 10 min pre-incubation period at 37° C., the reaction was initiated by the addition of tyramine. Reaction was carried out for 45 min at 37° C. before termination with 50 μl PCA (2 M).
Samples were centrifuged for 3 min at 16100 g and supernatants were subjected to solid phase extraction. Solid phase extraction was performed using either SPE cartridges ISOLUTE SCX-3 (100 mg, 1 mL) or SPE 2 mL fixed 96 well plates ISOLUTE SCX-3 (100 mg) previously equilibrated with MilliQ water. Columns/plates were centrifuged at 150 g for 2 min. Eluate was discarded and matrix was washed with 1 mL of MilliQ water after which octopamine was eluted with 2×0.25 mL ammonium hydroxide (4 M). The oxidation of octopamine to p-hydroxybenzaldehyde was carried out for 6 min with 100 μl sodium periodate (2%) and was stopped with 100 μl sodium metabisulfite (10%). Absorbance was measured at 330 nm on a Spectramax microplate reader (Molecular Devices, Sunnyvale, Calif.). All enzymatic reactions were performed in duplicate. Results are reported in the table below as activity in % of control at the inhibitor concentration tested.

[1] = inhibitor 1 μM, SK-N-SH cell homogenate

| Compound | remaining activity at 0.1 µM (SK-N-SH cell homogenate) | remaining activity at 1 µM [1] | remaining activity at 1 µM |
| --- | --- | --- | --- |
| Fc1ccc(Cl)cc1[C@@]12C[C@@H]1c1c[nH]c(=S)n1C2 [Example 110, (5aR,6aS)-5a-(5-chloro-2-fluorophenyl)-5,5a,6,6a-tetrahydrocyclopropa[3,4]pyrrolo[1,2-c]imidazole-3 (2H)-thione] | 73.8% | 15.9% |  |
| Fc1ccc(F)c([C@]23C[C@H]2c2c[nH]c(=S)n2C3)c1F [Example 68, (5aS,6aR)-5a-(2,3,6-trifluorophenyl)-5,5a,6,6a-tetrahydrocyclopropa[3,4]pyrrolo[1,2-c]imidazole-3 (2H)-thione] |  | 5.1% |  |
| Fc1ccc(Cl)c(F)c1[C@H]1Cc2c[nH]c(=S)n2C1 [Example 86, (R)-6-(3-chloro-2,6-difluorophenyl)-2,5,6,7-tetrahydro-3H-pyrrolo[1,2-c]imidazole-3-thione] | 25.3% | 0% |  |
| Cc1[nH]c(=S)n2c1[C@@H]1C[C@]1(c1cc(Cl)ccc1F)C2 [Example 99, (5aS,6aR)-5a-(5-chloro-2-fluorophenyl)-1-methyl-5,5a,6,6a-tetrahydrocyclopropa[3,4]pyrrolo[1,2-c]imidazole-3 (2H)-thione] | 31.6% | 1% |  |
| Fc1ccc(F)c([C@@H]2Cc3c[nH]c(=S)n3C2)c1F [Example 112, (S)-6-(2,3,6-trifluorophenyl)-2,5,6,7-tetrahydro-3H-pyrrolo[1,2-c]imidazole-3-thione] | 70% | 10.1% |  |
| Fc1c(Cl)cccc1[C@]12C[C@H]1c1c[nH]c(=S)n1C2 [Example 92, (5aS,6aR)-5a-(3-chloro-2-fluorophenyl)-5,5a,6,6a-tetrahydrocyclopropa[3,4]pyrrolo[1,2-c]imidazole-3 (2H)-thione] | 2% | 0% |  |
| Fc1cc(F)cc([C@]23C[C@H]2Cc2c[nH]c(=S)n2C3)c1 [Example 106, (5aS,6aS)-5a-(3,5-difluorophenyl)-2,5,5a,6,6a,7-hexahydro-3H-cyclopropa[d]imidazo[1,5-a]pyridine-3-thione] |  |  | 16.3% |
| Fc1ccc(Cl)c([C@]23C[C@H]2c2c[nH]c(=S)n2C3)c1 [Example 75, (5aS,6aR)-5a-(2-chloro-5-fluorophenyl)-5,5a,6,6a-tetrahydrocyclopropa[3,4]pyrrolo[1,2-c]imidazole-3 (2H)-thione] |  | 18.1% |  |

Further lines, with some results ahead:

| remaining activity at 0.1 µM (SK-N-SH cell homogenate) | remaining activity at 1 µM [1] | Compound | remaining activity at 1 µM |
| --- | --- | --- | --- |
|  | 45.3% | N#CCNC(=S)N1CC2CC2(c2cc(F)ccc2F)C1 (stereo not shown) [Example 47, N-(cyanomethyl)-1-(2,5-difluorophenyl)-3-azabicyclo[3.1.0]hexane-3-carbothioamide] |  |
|  | 35.7% | Fc1ccc([C@]23C[C@H]2c2c[nH]c(=S)n2C3)c(F)c1 [Example 70, (5aS,6aR)-5a-(2,4-difluorophenyl)-5,5a,6,6a-tetrahydrocyclopropa[3,4]pyrrolo[1,2-c]imidazole-3(2H)-thione] |  |
| 67.5% | 17.2% | S=c1[nH]cc2n1C[C@@]1(c3cc(Cl)cc(Cl)c3)C[C@@H]21 [Example 109, (5aS,6aR)-5a-(3,5-dichlorophenyl)-5,5a,6,6a-tetrahydrocyclopropa[3,4]pyrrolo[1,2-c]imidazole-3 (2H)-thione] |  |
| 63.4% | 10.3% | Fc1ccc(Cl)c(F)c1[C@@]12C[C@@H]1c1c[nH]c(=S)n1C2 [Example 103, (5aR,6aS)-5a-(3-chloro-2,6-difluorophenyl)-5,5a,6,6a-tetrahydrocyclopropa[3,4]pyrrolo[1,2-c]imidazole-3 (2H)-thione] |  |
|  | 44.8% | NC(=S)N1CCC(c2ccc(F)c(F)c2)C1 (stereo not shown) [Example 20, 3-(3,4-difluorophenyl)pyrrolidine-1-carbothioamide] |  |
| 40.4% | 0.3% | CCCNC(=S)N1C[C@@H]2C[C@]2(c2cc(F)cc(F)c2)C1 [Example 39, (1S,5R)-1-(3,5-Difluorophenyl)-N-propyl-3-azabicyclo[3.1.0]hexane-3-carbothioamide] |  |
